Data on one compound can be found in patent US20250325529A1, “INHIBITORS OF FATTY ACID BINDING PROTEINS (FABPs), METHODS OF USE AND METHODS OF MAKING” (Celloram, inc., priority 2024, published 2025).

For orientation: Kd means the free concentration of one partner at which half of the binding sites on the other are occupied at equilibrium, for simple one-to-one binding. Low readings indicate higher affinity, high ones lower affinity.

The target of one data set is PPARα (Homo sapiens (Human), UniProt Q07869). Kind of data set: Transcriptional activation assay in COS7 cells, PPARα. In kind it is cell-based. The conditions noted are these: PPRE luciferase reporter, PD151 and PD152 at 10 μM. Put shortly:
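COS-7 cells co-transfected with a 3×PPRE-luciferase reporter, receptor expression vector and β-galactosidase control plasmid; 18 h post-transfection, moved to serum-free medium and treated with compound for 18 h. Luciferase read from lysates, normalised to β-galactosidase activity.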

A further data set addresses FABP7 (Homo sapiens (Human), UniProt O15540). Kind of data set: Fluorescence (ANS) competition binding assay, FABP7. The conditions noted are these: ANS displacement. The method in brief: (§1)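 His-tagged FABPs were expressed in E. coli. Kd for ANS was first determined by titrating 2 μM protein with ANS and following fluorescence increase. Compounds then displaced ANS from 1:1 protein:ANS complexes, and Kd was derived from the competition EC50 and the ANS Kd.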

The next data set has as its target PPARδ (Homo sapiens (Human), UniProt Q03181). Kind of data set: Transcriptional activation assay in COS7 cells, PPARδ. The format is cell-based. The conditions noted are these: PPRE luciferase reporter, PD151 and PD152 at 10 μM. The protocol: COS-7 were cultured in 6-well plates and co-transfected with either a luciferase reporter driven by 3 copies of a PPRE and expression vector for either PPARδ, PPARα or PPARγ together with a vector harboring cDNA for β-galactosidase, serving as a transfection control. To test whether FABP4 or FABP5 mediate activation of their cognate receptors PPARγ and PPARδ, respectively, cells were also co-transfected with a plasmid harboring sequence of either FABP4 or FABP5. 18 h post-transfection, cells were placed in a serum-free medium and treated with agonist/compound. 18 h. later, cells were lysed, luciferase activity was assayed (Promega, WI, USA) and corrected for transfection efficiency by the activity of β-galactosidase.
Transcriptional activation assays were carried out utilizing COS7 cells as described above.
(A reporter such as luciferase makes a cellular process visible.)

A further data set addresses FABP4 (Homo sapiens (Human), UniProt P15090). Kind of data set: Fluorescence (ANS) competition binding assay, FABP4. Conditions: ANS displacement. Put shortly: as §1
The subject of data set [1] is normal human mammary epithelial cells (HMEC). Kind of data set: Proliferation assay (Incucyte confluency), HMEC. In kind it is cell-based. How it is done:
COS-7, MDA-MB-231, and HepG2, were cultured in Dulbecco's modified Eagle's medium (DMEM) supplemented with 10% fetal bovine serum (Invitrogen Life Sciences, Carlsbad, CA). BT-549, OVCAR5 and OVCAR8 cells were cultured in L-Glutamine containing RPMI medium supplemented with 10% fetal calf serum (Invitrogen Life Sciences, Carlsbad, CA). The primary Human Mammary Epithelial Cells (HMEC) were cultured in mammary epithelial cell complete medium (basal medium plus rH-Insulin (5 μg/mL); L-Glutamine (6 mM); Epinephrine (1 μM); Apo-Transferrin (5 μg/mL); rH-TGF-α (0.5 ng/mL); ExtractP (0.4%); Hydrocortisone Hemisuccinate (100 ng/mL)).
2000 cells were plated in each well of 96-well plate. The next day cells were treated with compounds and incubated in Incucyte for 4 days. Images taken every 4 hours for the duration of the time were analyzed to calculate percentage of confluency in response to the treatments. Growth inhibition was calculated as 1—(percentage of viable cells out of untreated cells).

Data set [2] relates to Salmonella typhimurium tester strains TA98, TA100, TA1535, TA1537 and Escherichia coli tester strain WP2 uvrA (pKM101). Kind of data set: Ames test, overall conclusion for the tested strains. Conditions: presence and absence of S9. The format is cell-based. The protocol:
PD152 (compound 2) was tested for genotoxic and cytotoxic side effects by Ames test. The Ames test is a Bacterial Reverse Mutation Test of mutagenicity that utilizes Salmonella typhimurium tester strains TA98, TA100, TA1535, TA1537 and Escherichia coli tester strain WP2 uvrA (pKM101), both in the presence and absence of S9.
The compound PD152 was tested at 10 concentrations (0.032-1000 μg/plate) in the presence of, or absence of, the hepatic enzyme S9.
The aniline FABP4/5 inhibitor compound, 2-((2-((2,4-dichloro-5-isopropoxyphenyl)amino)-2-oxoethyl)thio)-2-methylpropanoic acid (compound “B104” as disclosed in WO2023043803A1) also was tested for genotoxic and cytotoxic side effects by Ames test. B104 was tested using the Salmonella typhimurium tester stains TA98, TA100, TA1535, and TA1537, both in the presence and absence of the hepatic enzyme S9, at 5 concentrations (1.5-64 μg/plate).
(The Ames test detects mutagens through reverse mutation in bacteria.)

Entries after “also recorded” stand apart in the source; their conditions may differ. Some results are limits rather than exact numbers.

PPARδ, sequence (Q03181 whole entry, species assumed): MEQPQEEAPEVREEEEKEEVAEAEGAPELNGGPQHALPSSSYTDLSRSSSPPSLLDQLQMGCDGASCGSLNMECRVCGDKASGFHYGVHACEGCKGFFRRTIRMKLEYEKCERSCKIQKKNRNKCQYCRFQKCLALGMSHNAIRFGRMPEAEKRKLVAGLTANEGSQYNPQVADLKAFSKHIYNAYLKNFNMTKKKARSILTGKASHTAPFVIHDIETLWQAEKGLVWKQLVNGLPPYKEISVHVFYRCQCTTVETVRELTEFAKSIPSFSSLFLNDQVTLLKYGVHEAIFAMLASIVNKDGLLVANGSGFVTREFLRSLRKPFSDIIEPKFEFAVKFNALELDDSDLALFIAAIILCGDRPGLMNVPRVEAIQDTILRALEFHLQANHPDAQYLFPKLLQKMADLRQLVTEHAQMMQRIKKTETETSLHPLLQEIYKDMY
PPARα, sequence (Q07869 whole entry, species assumed): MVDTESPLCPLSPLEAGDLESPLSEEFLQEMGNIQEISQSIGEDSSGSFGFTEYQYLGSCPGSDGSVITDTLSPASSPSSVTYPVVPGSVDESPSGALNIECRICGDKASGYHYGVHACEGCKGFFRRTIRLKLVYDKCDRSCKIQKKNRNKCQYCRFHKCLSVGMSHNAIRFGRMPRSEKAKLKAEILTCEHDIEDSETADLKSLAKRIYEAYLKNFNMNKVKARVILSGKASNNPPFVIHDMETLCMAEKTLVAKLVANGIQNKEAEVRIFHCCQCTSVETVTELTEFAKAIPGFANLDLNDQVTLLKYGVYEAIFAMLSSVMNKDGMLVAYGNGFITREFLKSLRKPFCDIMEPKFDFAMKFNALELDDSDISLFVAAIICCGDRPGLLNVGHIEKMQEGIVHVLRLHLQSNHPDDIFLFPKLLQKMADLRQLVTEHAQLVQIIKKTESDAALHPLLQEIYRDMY
FABP7, sequence (O15540 whole entry, species assumed): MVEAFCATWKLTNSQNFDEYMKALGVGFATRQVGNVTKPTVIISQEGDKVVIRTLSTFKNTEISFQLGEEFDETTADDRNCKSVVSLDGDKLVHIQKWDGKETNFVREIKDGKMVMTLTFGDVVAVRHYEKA
FABP4, sequence (P15090 whole entry, species assumed): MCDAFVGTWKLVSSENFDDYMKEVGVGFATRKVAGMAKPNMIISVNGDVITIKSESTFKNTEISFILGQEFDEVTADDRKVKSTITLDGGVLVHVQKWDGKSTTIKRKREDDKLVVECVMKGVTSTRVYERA

On to `CC(C)Oc1nc(NC(=O)CSCC(=O)O)c(Cl)cc1Cl` [PD152, 2-((2-((3,5-dichloro-6-isopropoxypyridin-2-yl)amino)-2-oxoethyl)thio)acetic acid], for which the “Activation of transcription by PPARα” value at PPARα is “None of these tested compounds activated; also recorded: none of the tested compounds PD151 and PD152 activated transcription”. The dissociation constant (Kd) at FABP7 came out at 989 nM. The “Activation of transcription by PPARδ” value on PPARδ was “None of these tested compounds activated; also recorded: none of the tested compounds PD151 and PD152 activated transcription”. In addition, the dissociation constant Kd at FABP4 was found to be 18 nM. Moreover, the “Concentrations at which proliferation of HMEC cells was inhibited” value in data set [1] (HMEC cells, 4 days) was more than 125 µM. For the same compound, the IC50 in data set [1] (Homo sapiens, 96 h, HMEC cells, 4 days, read-out: IC50, inhibition of proliferation) came out at 319000 nM. The “Fold lower efficacy in HMEC than in BT-549 cells” value in data set [1] (IC50 HMEC vs BT-549) came out at 305 fold. In data set [1] (IC50 HMEC vs MB-231), the “Fold lower efficacy in HMEC than in MB-231 cells” value worked out at 532 fold. Besides, in data set [2], the “Cytotoxicity to the tested strains” value is “non-cytotoxic” and the “Mutagenicity in the Ames test” value is on record as “non-mutagenic”.
